Measured values reported in patent US20240033234A1, “THERAPEUTIC COMPOUNDS, FORMULATIONS, AND USE THEREOF” (Tvardi Therapeutics, Inc., priority 2022, published 2024).
Values joined by “and” are separate entries in the source; they are usually repeats but may differ in a detail not shown here. Equal values may be shown once.

Assay: Accelerated and long term stability study of TTI-101 (Batch A, Batch B): HPLC assay, purity, impurities and water content after storage at 5° C., 25° C./60% RH, 30° C./65% RH or 40° C./75% RH
Format: physicochemical
Details: for Impurities RRT 0.99: RRT of compound of formula (IV); for Impurities RRT 1.06: RRT of Compound 4
Description: Exemplary HPLC conditions: diluent was 0.1% trifluoroacetic acid (TFA) in acetonitrile, Mobile Phase A was 0.05% TFA in water, and Mobile Phase B was 0.05% TFA in acetonitrile, column (Agilent, Eclipse XDB-C18, 3.0×100 mm, particle size 1.8 μm), flow (0.425 mL/min), and detector (280 nm diode array).
Batch A was prepared analogously using Method 3 as described in Example 1. Batch B was prepared according to Method 5 as described in Example 1.
Samples of TTI-101 were stored at 5° C., 25° C./60% RH, 30° C./65% RH, or 40° C./75% RH. TTI-101 was stored in an LDPE bag enclosed with a Nylon cable tie and then transferred to another LDPE bag and enclosed with a Nylon cable tie. The enclosure was put into an HDPE bottle and closed with a polyethylene-lined polypropylene cap. The samples were stored under the above-identified conditions.
The samples were analyzed using HPLC with the exemplary conditions identified above. Relative retention time (RRT) for Compound 5 was about 0.83, Compound 4 was about 1.05-1.06, Compound 6 was about 1.15-1.17, and compound of formula (IV) was about 0.99.
• NA not applicable • NQ ≥0.02% and <0.05% • Avg average • Cmpd compound • — no peak • M month • RRT relative retention time

[1] = 5° C., 0 M, P1/P2, listed as Batch A
[2] = 5° C., 2 M, P1/P2, listed as Batch A
[3] = 5° C., 3 M, P1/P2, listed as Batch A
[4] = 5° C., 12 M, P1/P2, listed as Batch A
[5] = 25° C./60% RH, 0 M, P1/P2, listed as Batch A
[6] = 25° C./60% RH, 2 M, P1/P2, listed as Batch A

Question: Which results are given for `COc1ccc(S(=O)(=O)Nc2cc(-c3c(O)ccc4ccccc34)c(O)c3ccccc23)cc1` [TTI-101]?
Answer: Assay (%) (5° C., 0 M, Avg): 99.8%; Impurities RRT 1.06 (Cmpd 4) (5° C., 0 M, Avg): NQ (≥0.02% and <0.05%); Impurities RRT 1.17 (Cmpd 6) (5° C., 0 M, Avg): 0.13 area %; Impurities RRT 1.32 (5° C., 0 M, Avg): NQ (≥0.02% and <0.05%); Impurities Total (5° C., 0 M, Avg): 0.1 area %; Purity (%) (5° C., 0 M, Avg): 99.8%; Water Content (%) (5° C., 0 M, Avg): <0.04%; Impurities RRT 0.99 (5° C., 0 M, Avg): NQ (≥0.02% and <0.05%); Impurities RRT 1.32 (5° C., 0 M, P1/P2): NQ (≥0.02% and <0.05%); Impurities Total (5° C., 0 M, P1/P2): 0.1 area %; Purity (%) (5° C., 0 M, P1/P2): 99.8%; Water Content (%) (5° C., 0 M, P1/P2): <0.04%; Assay (%) [1]: 99.9% and 99.7%; Impurities RRT 1.17 (Cmpd 6) [1]: 0.13 area % and 0.12 area %; Assay (%) (5° C., 2 M, Avg): 100.2%; Impurities RRT 1.16 (Cmpd 6) (5° C., 2 M, Avg): 0.08 area %; Impurities Total (5° C., 2 M, Avg): 0.1 area %; Purity (%) (5° C., 2 M, Avg): 99.9%; Water Content (%) (5° C., 2 M, Avg): <0.04%; Impurities RRT 0.99 (5° C., 2 M, Avg): NQ (≥0.02% and <0.05%); Water Content (%) (5° C., 2 M, P1/P2): <0.04%; Assay (%) [2]: 99.7% and 100.7%; Purity (%) [2]: 99.9% and 100.0%; Assay (%) (5° C., 3 M, Avg): 99.9%; Impurities RRT 1.06 (Cmpd 4) (5° C., 3 M, Avg): 0.07 area %; Impurities RRT 1.16 (Cmpd 6) (5° C., 3 M, Avg): 0.22 area %; Impurities Total (5° C., 3 M, Avg): 0.3 area %; Purity (%) (5° C., 3 M, Avg): 99.7%; Water Content (%) (5° C., 3 M, Avg): <0.04%; Impurities RRT 1.16 (Cmpd 6) (5° C., 3 M, P1/P2): 0.22 area %; Impurities Total (5° C., 3 M, P1/P2): 0.3 area %; Purity (%) (5° C., 3 M, P1/P2): 99.7%; Water Content (%) (5° C., 3 M, P1/P2): <0.04%; Assay (%) [3]: 100.2% and 99.5%; Impurities RRT 1.06 (Cmpd 4) [3]: 0.06 area % and 0.07 area %; Assay (%) (5° C., 6 M, Avg): 99.4%; Impurities RRT 1.15 (Cmpd 6) (5° C., 6 M, Avg): 0.13 area %; Impurities Total (5° C., 6 M, Avg): 0.1 area %; Purity (%) (5° C., 6 M, Avg): 99.9%; Water Content (%) (5° C., 6 M, Avg): <0.04%; Impurities RRT 1.15 (Cmpd 6) (5° C., 6 M, P1/P2): 0.13 area %; Impurities Total (5° C., 6 M, P1/P2): 0.1 area %; Purity (%) (5° C., 6 M, P1/P2): 99.9%; Water Content (%) (5° C., 6 M, P1/P2): <0.04%; Assay (%) (5° C., 6 M, P1/P2, listed as Batch A): 100.6% and 98.3%; Assay (%) (5° C., 9 M, Avg): 99.6%; Impurities RRT 1.16 (Cmpd 6) (5° C., 9 M, Avg): 0.12 area %; Impurities Total (5° C., 9 M, Avg): 0.1 area %; Purity (%) (5° C., 9 M, Avg): 99.9%; Water Content (%) (5° C., 9 M, Avg): <0.04%; Assay (%) (5° C., 9 M, P1/P2): 99.6%; Impurities Total (5° C., 9 M, P1/P2): 0.1 area %; Purity (%) (5° C., 9 M, P1/P2): 99.9%; Water Content (%) (5° C., 9 M, P1/P2): <0.04%; Impurities RRT 1.16 (Cmpd 6) (5° C., 9 M, P1/P2, listed as Batch A): 0.12 area % and 0.11 area %; Assay (%) (5° C., 12 M, Avg): 99.2%; Impurities RRT 1.06 (Cmpd 4) (5° C., 12 M, Avg): NQ (≥0.02% and <0.05%); Impurities RRT 1.16 (Cmpd 6) (5° C., 12 M, Avg): 0.39 area %; Impurities Total (5° C., 12 M, Avg): 0.4 area %; Purity (%) (5° C., 12 M, Avg): 99.6%; Water Content (%) (5° C., 12 M, Avg): 0.04%; Impurities RRT 1.06 (Cmpd 4) (5° C., 12 M, P1/P2): NQ (≥0.02% and <0.05%); Impurities RRT 1.16 (Cmpd 6) (5° C., 12 M, P1/P2): 0.39 area %; Impurities Total (5° C., 12 M, P1/P2): 0.4 area %; Purity (%) (5° C., 12 M, P1/P2): 99.6%; Assay (%) [4]: 99.1% and 99.2%; Water Content (%) [4]: <0.04% and 0.04%; Assay (%) (5° C., 18 M, Avg): 98.5%; Impurities RRT 1.15 (Cmpd 6) (5° C., 18 M, Avg): 0.10 area %; Impurities Total (5° C., 18 M, Avg): 0.1 area %; Purity (%) (5° C., 18 M, Avg): 99.9%; Water Content (%) (5° C., 18 M, Avg): <0.04%; Impurities RRT 1.15 (Cmpd 6) (5° C., 18 M, P1/P2): 0.10 area %; Impurities Total (5° C., 18 M, P1/P2): 0.1 area %; Purity (%) (5° C., 18 M, P1/P2): 99.9%; Water Content (%) (5° C., 18 M, P1/P2): <0.04%; Impurities RRT 1.06 (5° C., 18 M, P1/P2): NQ (≥0.02% and <0.05%); Assay (%) (5° C., 18 M, P1/P2, listed as Batch A): 97.9% and 99.2%; Assay (%) (5° C., 24 M, Avg): 99.7%; Impurities RRT 1.16 (Cmpd 6) (5° C., 24 M, Avg): 0.11 area %; Impurities Total (5° C., 24 M, Avg): 0.1 area %; Purity (%) (5° C., 24 M, Avg): 99.9%; Water Content (%) (5° C., 24 M, Avg): <0.04%; Impurities RRT 1.16 (Cmpd 6) (5° C., 24 M, P1/P2): 0.11 area %; Impurities Total (5° C., 24 M, P1/P2): 0.1 area %; Purity (%) (5° C., 24 M, P1/P2): 99.9%; Water Content (%) (5° C., 24 M, P1/P2): <0.04%; Impurities RRT 1.06 (5° C., 24 M, P1/P2): NQ (≥0.02% and <0.05%); Assay (%) (5° C., 24 M, P1/P2, listed as Batch A): 100.2% and 99.3%; Assay (%) (25° C./60% RH, 0 M, Avg): 99.8%; Impurities RRT 1.06 (Cmpd 4) (25° C./60% RH, 0 M, Avg): NQ (≥0.02% and <0.05%); Impurities RRT 1.17 (Cmpd 6) (25° C./60% RH, 0 M, Avg): 0.13 area %; Impurities RRT 1.32 (25° C./60% RH, 0 M, Avg): NQ (≥0.02% and <0.05%); Impurities Total (25° C./60% RH, 0 M, Avg): 0.1 area %; Purity (%) (25° C./60% RH, 0 M, Avg): 99.8%; Water Content (%) (25° C./60% RH, 0 M, Avg): <0.04%; Impurities RRT 0.99 (25° C./60% RH, 0 M, Avg): NQ (≥0.02% and <0.05%); Impurities RRT 1.32 (25° C./60% RH, 0 M, P1/P2): NQ (≥0.02% and <0.05%); Impurities Total (25° C./60% RH, 0 M, P1/P2): 0.1 area %; Purity (%) (25° C./60% RH, 0 M, P1/P2): 99.8%; Water Content (%) (25° C./60% RH, 0 M, P1/P2): <0.04%; Assay (%) [5]: 99.9% and 99.7%; Impurities RRT 1.17 (Cmpd 6) [5]: 0.13 area % and 0.12 area %; Assay (%) (25° C./60% RH, 2 M, Avg): 99.1%; Impurities RRT 0.71 (25° C./60% RH, 2 M, Avg): 0.08 area %; Impurities RRT 0.92 (25° C./60% RH, 2 M, Avg): NQ (≥0.02% and <0.05%); Impurities RRT 1.16 (Cmpd 6) (25° C./60% RH, 2 M, Avg): 0.05 area %; Impurities RRT 1.29 (25° C./60% RH, 2 M, Avg): NQ (≥0.02% and <0.05%); Impurities Total (25° C./60% RH, 2 M, Avg): 0.1 area %; Purity (%) (25° C./60% RH, 2 M, Avg): 99.9%; Water Content (%) (25° C./60% RH, 2 M, Avg): <0.04%; Water Content (%) (25° C./60% RH, 2 M, P1/P2): <0.04%; Assay (%) [6]: 98.9% and 99.3%; Impurities Total [6]: 0.05 area % and 0.1 area %; Purity (%) [6]: 99.9% and 99.8%; Assay (%) (25° C./60% RH, 3 M, Avg): 99.5%; Impurities RRT 1.06 (Cmpd 4) (25° C./60% RH, 3 M, Avg): 0.07 area %; Impurities RRT 1.16 (Cmpd 6) (25° C./60% RH, 3 M, Avg): 0.22 area %; Impurities Total (25° C./60% RH, 3 M, Avg): 0.3 area %; Purity (%) (25° C./60% RH, 3 M, Avg): 99.7%; Water Content (%) (25° C./60% RH, 3 M, Avg): <0.04%; Impurities RRT 1.06 (Cmpd 4) (25° C./60% RH, 3 M, P1/P2): 0.07 area %; Impurities RRT 1.16 (Cmpd 6) (25° C./60% RH, 3 M, P1/P2): 0.22 area %; Impurities Total (25° C./60% RH, 3 M, P1/P2): 0.3 area %
